Assays:
[1] = target: T1, Alpha-1A adrenergic receptor (Rattus norvegicus, UniProt P43140); assay: DRUGMATRIX: Alpha-1A adrenergic receptor radioligand binding (ligand: prazosin); format: cell membranes, Wistar, Submaxillary gland, Membrane; settings: Not Active = under 50% inhibition at 10 µM
T1 sequence (P43140 whole entry): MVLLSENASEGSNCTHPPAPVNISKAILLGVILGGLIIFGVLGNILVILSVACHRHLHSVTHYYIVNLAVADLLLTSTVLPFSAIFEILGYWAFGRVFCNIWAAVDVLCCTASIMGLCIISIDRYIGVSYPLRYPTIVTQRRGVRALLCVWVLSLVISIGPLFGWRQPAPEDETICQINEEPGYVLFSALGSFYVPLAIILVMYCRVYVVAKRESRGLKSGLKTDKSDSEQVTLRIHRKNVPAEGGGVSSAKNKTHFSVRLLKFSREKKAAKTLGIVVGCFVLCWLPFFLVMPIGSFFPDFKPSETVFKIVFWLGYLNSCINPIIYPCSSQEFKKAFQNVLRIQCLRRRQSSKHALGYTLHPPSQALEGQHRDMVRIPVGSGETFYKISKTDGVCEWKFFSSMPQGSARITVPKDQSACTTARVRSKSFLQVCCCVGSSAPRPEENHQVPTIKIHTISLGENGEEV

[2] = target: T2, Type-2 angiotensin II receptor (Homo sapiens, UniProt P50052); format: cell-based; settings: cho-k1; also: in other assays of this panel Not Active means under 50% inhibition at 10 µM
T2 sequence (P50052 whole entry): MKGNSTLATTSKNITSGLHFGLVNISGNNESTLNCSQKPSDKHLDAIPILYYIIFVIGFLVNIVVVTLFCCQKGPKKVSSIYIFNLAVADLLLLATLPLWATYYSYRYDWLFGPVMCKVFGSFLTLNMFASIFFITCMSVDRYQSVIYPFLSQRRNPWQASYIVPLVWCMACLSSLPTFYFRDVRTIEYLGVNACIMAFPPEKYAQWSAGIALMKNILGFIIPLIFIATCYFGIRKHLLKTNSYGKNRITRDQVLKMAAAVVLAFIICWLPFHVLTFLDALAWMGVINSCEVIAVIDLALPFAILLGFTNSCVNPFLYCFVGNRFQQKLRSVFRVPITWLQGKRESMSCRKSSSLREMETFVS

[3] = target: Vascular endothelial growth factor receptor 1 (Homo sapiens, UniProt P17948); format: cell-based; settings: huvec; also: in other assays of this panel Not Active means under 50% inhibition at 10 µM
Vascular endothelial growth factor receptor 1, sequence (P17948 whole entry): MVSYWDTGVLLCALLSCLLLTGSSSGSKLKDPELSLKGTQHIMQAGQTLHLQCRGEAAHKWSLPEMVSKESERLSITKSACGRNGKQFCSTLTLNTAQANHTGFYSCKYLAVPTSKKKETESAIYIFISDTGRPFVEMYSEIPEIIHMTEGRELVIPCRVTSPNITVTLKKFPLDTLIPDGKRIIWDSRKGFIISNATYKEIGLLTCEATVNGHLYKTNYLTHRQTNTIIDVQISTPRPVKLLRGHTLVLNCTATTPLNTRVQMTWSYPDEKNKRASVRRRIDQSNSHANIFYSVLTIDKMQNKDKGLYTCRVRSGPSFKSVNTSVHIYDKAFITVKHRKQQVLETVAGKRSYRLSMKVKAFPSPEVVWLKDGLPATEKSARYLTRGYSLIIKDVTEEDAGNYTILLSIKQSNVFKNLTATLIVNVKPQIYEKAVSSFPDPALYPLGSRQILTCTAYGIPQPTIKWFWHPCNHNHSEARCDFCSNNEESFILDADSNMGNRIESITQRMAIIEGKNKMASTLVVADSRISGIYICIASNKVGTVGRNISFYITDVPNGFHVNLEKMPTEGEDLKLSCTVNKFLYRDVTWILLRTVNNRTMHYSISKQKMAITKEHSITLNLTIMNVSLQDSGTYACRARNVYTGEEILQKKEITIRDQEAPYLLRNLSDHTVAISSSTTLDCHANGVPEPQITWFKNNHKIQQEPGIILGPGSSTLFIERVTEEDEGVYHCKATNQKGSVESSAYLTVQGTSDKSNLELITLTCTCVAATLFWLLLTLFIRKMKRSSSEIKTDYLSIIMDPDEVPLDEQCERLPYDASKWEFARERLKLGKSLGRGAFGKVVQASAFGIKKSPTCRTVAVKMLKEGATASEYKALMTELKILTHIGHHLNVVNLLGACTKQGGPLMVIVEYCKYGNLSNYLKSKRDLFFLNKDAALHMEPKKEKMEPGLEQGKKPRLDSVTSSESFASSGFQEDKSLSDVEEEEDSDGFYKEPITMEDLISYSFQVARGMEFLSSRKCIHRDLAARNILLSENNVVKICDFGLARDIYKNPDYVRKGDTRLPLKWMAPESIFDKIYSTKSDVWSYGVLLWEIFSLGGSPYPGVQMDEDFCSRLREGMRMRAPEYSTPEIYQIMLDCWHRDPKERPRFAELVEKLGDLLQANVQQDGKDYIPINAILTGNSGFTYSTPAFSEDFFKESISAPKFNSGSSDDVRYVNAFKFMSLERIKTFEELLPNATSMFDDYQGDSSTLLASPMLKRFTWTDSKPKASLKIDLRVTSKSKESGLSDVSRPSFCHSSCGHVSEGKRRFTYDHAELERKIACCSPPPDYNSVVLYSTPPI

[4] = target: T3, Vasoactive intestinal polypeptide receptor 1 (Homo sapiens, UniProt P32241); format: cell membranes, Membrane; settings: ht-29; also: in other assays of this panel Not Active means under 50% inhibition at 10 µM
T3 sequence (P32241 whole entry): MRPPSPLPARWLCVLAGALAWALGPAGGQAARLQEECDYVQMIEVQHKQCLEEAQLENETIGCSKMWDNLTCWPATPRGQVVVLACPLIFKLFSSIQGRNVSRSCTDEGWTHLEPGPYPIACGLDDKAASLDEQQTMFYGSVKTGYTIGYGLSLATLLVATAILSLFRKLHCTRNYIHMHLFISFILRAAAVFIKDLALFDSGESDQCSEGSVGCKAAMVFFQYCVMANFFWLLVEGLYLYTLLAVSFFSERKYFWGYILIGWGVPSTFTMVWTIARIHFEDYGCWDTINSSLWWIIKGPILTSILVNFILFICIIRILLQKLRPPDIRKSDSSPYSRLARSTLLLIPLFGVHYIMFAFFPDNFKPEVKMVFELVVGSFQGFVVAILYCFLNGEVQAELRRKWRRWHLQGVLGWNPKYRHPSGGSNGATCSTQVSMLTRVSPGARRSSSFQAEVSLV

Carbonic anhydrase 2 = Carbonic anhydrase 2 (Homo sapiens, UniProt P00918); assay: DRUGMATRIX: Carbonic Anhydrase II enzyme inhibition (substrate: 4-Nitrophenyl acetate (4-NPA)); format: tissue-based, Erythrocyte; settings: erythrocyte; Not Active = under 50% inhibition at 10 µM
[5] = target: T4, Neuropeptide Y receptor type 2 (Homo sapiens, UniProt P49146); format: cell membranes, Membrane; settings: kan-ts; also: in other assays of this panel Not Active means under 50% inhibition at 10 µM
T4 sequence (P49146 whole entry): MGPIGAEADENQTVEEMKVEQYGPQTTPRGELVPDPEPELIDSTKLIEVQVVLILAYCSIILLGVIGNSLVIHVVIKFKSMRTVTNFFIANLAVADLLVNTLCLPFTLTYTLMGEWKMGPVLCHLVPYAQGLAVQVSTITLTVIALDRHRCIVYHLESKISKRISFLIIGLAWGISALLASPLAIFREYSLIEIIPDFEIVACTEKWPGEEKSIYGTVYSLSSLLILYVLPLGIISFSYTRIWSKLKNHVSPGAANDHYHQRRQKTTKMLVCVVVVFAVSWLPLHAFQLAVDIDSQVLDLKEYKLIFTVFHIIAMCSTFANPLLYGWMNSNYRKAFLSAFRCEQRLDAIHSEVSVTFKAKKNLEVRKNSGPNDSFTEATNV

[6] = target: Delta-type opioid receptor (Homo sapiens, UniProt P41143); format: cell membranes, HEK293, Membrane; settings: hek293; also: in other assays of this panel Not Active means under 50% inhibition at 10 µM
Delta-type opioid receptor, sequence (P41143 whole entry): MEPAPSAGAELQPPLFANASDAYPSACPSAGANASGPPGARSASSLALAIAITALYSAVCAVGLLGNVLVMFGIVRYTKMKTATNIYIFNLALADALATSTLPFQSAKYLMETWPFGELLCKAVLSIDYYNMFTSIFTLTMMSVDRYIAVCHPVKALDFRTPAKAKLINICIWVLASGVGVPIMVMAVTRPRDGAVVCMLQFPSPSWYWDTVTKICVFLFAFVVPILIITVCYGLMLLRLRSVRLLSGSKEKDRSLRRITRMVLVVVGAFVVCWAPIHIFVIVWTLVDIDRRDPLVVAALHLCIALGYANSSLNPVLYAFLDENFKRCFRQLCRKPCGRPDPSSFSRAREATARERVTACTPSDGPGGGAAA

Cytochrome P450 1A2 = target: T5, Cytochrome P450 1A2 (Homo sapiens, UniProt P05177); settings: bti-tn-5b1-4; also: in other assays of this panel Not Active means under 50% inhibition at 10 µM
T5 sequence (P05177 whole entry): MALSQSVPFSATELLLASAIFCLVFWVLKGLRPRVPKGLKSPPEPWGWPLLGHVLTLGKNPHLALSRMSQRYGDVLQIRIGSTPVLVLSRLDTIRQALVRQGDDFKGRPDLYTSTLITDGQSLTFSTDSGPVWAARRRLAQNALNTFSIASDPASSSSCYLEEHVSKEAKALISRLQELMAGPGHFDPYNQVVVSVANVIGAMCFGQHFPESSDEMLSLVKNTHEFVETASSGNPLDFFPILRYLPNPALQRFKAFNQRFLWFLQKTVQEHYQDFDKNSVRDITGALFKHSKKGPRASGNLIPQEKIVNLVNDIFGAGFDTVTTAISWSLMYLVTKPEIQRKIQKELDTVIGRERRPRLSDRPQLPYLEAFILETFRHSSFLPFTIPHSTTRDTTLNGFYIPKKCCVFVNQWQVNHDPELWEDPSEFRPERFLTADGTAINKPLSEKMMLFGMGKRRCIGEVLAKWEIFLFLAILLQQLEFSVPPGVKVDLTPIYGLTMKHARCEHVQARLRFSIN

O=C(O)CO [GLYCOLIC ACID]
Not Active: IC50 [1] | IC50 [2] | IC50 [3] | IC50 [4] | IC50 (Carbonic anhydrase 2) | IC50 [5] | IC50 [6] | IC50 (Cytochrome P450 1A2) | Ki (Cytochrome P450 1A2)

O=C(NCCN1CCOCC1)c1ccc(Cl)cc1 [MOCLOBEMIDE]
Not Active: IC50 [1] | IC50 [2] | IC50 [3] | IC50 [4] | IC50 (Carbonic anhydrase 2) | IC50 [5] | IC50 [6] | IC50 (Cytochrome P450 1A2) | Ki (Cytochrome P450 1A2)

CARBOXYMETHYLCELLULOSE
Not Active: IC50 [1] | Ki [1] | IC50 [2] | Ki [2] | IC50 [3] | Ki [3] | IC50 [4] | Ki [4] | IC50 (Carbonic anhydrase 2) | Ki (Carbonic anhydrase 2) | IC50 [5] | Ki [5] | IC50 [6] | Ki [6] | IC50 (Cytochrome P450 1A2) | Ki (Cytochrome P450 1A2)

NC(N)=Nc1nc(CSCCC(N)=NS(N)(=O)=O)cs1 [FAMOTIDINE]
Not Active: IC50 [1] | IC50 [2] | IC50 [3] | IC50 [4] | IC50 (Carbonic anhydrase 2) | IC50 [5] | IC50 [6] | IC50 (Cytochrome P450 1A2) | Ki (Cytochrome P450 1A2)

COc1ccc(C[C@H](N)C(=O)N[C@H]2[C@@H](O)[C@H](n3cnc4c(N(C)C)ncnc43)O[C@@H]2CO)cc1 [PUROMYCIN]
Not Active: IC50 [1] | IC50 [2] | IC50 [3] | IC50 [4] | IC50 (Carbonic anhydrase 2) | IC50 [5] | IC50 [6] | IC50 (Cytochrome P450 1A2) | Ki (Cytochrome P450 1A2)

From ChEMBL document CHEMBL1909046, “DrugMatrix in vitro pharmacology data”
